# Assay results published in patent US10898475B2, “Bach1 inhibitors in combination with Nrf2 activators and pharmaceutical compositions thereof” (vTv Therapeutics LLC, priority 2014, dated 2021).
# Several values for one entry are separate records, joined by “and”; a condition that tells them apart may be missing. Equal entries are not always repeated. Structures can show the parent of a compound that is named as a salt.
# Test system: HMOX1 in Normal Human Lung Fibroblasts (NHLF)
# Experiment: HMOX1 Protein Expression (immunostaining, fold induction or % positive cells over DMSO)
# Conditions: for % Cells Positive HMOX: Cpd. 0 uM
# [1] = Homo sapiens, Fibroblast, read-out: Fold Induction of HMOX
# Description: Normal Human Lung Fibroblasts (NHLF) obtained from Lonza were cultured in T-225 flasks using conditions recommended by the vendor (FGM-2 medium supplemented with 2% fetal bovine serum (FBS), fibroblast growth factor (hFGF-B) 0.5 mL, insulin 0.5 mL, and gentamicin/amphotericin-B 0.5 mL at 37° C. in a humidified atmosphere of 5% CO2).
# For assays, cell were thawed and placed into culture in T225 flasks, grown to be 80% confluent, and harvested as described by the vendor. NHLF cells (2.5×10^4 cells per well) were plated in 384 well optilux tissue culture (BD) plates and incubated overnight in media prior to exposure to compound. Cells were incubated with DMSO or various combinations of either an Nrf2 Activator (DMF (dimethyl fumarate)/CDDO-Me) or a Bach1 Inhibitor for 16-18 hr. Cells were then fixed and permeabilized prior to incubation with HMOX1 antibody (abcam; 1:300 dilution in 1% BSA in PBS) for 1 hour. Cells were then washed and incubated with a solution of fluorescently-coupled goat anti-mouse antibody (Alexa 488 1:400 dilution Invitrogen) and Hoechst nuclear stain (1:2000; Invitrogen) in PBS containing 1% BSA for 1 hr. Immunostaining was detected using a GE InCell 2000 instrument at the following wavelengths: Hoechst Ex/Em 360/535 and Alexa 488 Ex/Em 480/535. Results were analyzed using GE InCell Analyzer software and represented as the increase fold of HMOX1 induction (Fold induction/FI) or the percentage of HMOX1 positive (% positive) cells over DMSO.
smiles,measurement,setting,value
"COC(=O)[C@]12CCC(C)(C)C[C@H]1[C@H]1C(=O)C=C3[C@@]4(C)C=C(C#N)C(=O)C(C)(C)[C@@H]4CC[C@@]3(C)[C@]1(C)CC2 [Bardoxolone Methyl, methyl 2-cyano-3,12-dioxooleana-1,9(11)dien-28-oate, reference compound]",increase HMOX1 (FIG. 1 bar B),9.7 nM CDDO-Me alone,2.5 fold
same,induction of HMOX1 protein,"CDDO-Me alone, greater than or equal to 156 nM",19 fold
same,fold induction at 0.0024 µM,[1],1.31
same,fold induction at 0.0048 µM,[1],1.59
same,fold induction at 0.0097 µM,[1],2.53
same,fold induction at 0.019 µM,[1],5
same,fold induction at 0.039 µM,[1],8.48
same,fold induction at 0.078 µM,[1],12.2
same,fold induction at 0.156 µM,[1],19
same,fold induction at 0.312 µM,[1],16.4
"COC(=O)/C=C/C(=O)OC [DMF, dimethyl fumarate, reference compound]",Hill slope of DMF dose response curves in Table 2,"Bach1 Inhibitor Conc. 0 uM, % Positive HMOX",1.25 and 1.26
same,% Cells Positive HMOX,DMF 0.03 uM,1.71%
same,% Cells Positive HMOX,DMF 0.1 uM,1.21%
same,% Cells Positive HMOX,DMF 0.3 uM,2.47%
same,% Cells Positive HMOX,DMF 1 uM,4.38%
same,% Cells Positive HMOX,DMF 3 uM,41.58%
same,% Cells Positive HMOX,DMF 10 uM,74.35%
same,% Cells Positive HMOX,DMF 30 uM,84.56%
same,fold induction at 0.03 µM,[1],1.04
same,fold induction at 0.1 µM,[1],1.06
same,fold induction at 0.3 µM,[1],1.14
same,fold induction at 1 µM,[1],1.39
same,fold induction at 3 µM,[1],2.76
same,fold induction at 10 µM,[1],4.45
same,fold induction at 30 µM,[1],6.19
"CNC(=O)c1ccc2c(c1)nc(Nc1nc3ccc(OC(F)(F)F)cc3s1)n2C [HPP-A, 1-Methyl-2-(6-trifluoromethoxy-benzothiazol-2-ylamino)-1H-benzoimidazole-5-carboxylic acid methyl amide]",increase HMOX1 (FIG. 1 bar A),156 nM HPP-A alone,3.5 fold
same,combined effect on HMOX induction (FIG. 1 bar C),156 nM HPP-A combined with 9.7 nM CDDO-Me,greater than additive
same,Fold Induction of HMOX,"HPP-A 0.019 uM, Bardoxolone Methyl 0 uM",0.97 fold
same,Fold Induction of HMOX,"HPP-A 0.019 uM, Bardoxolone Methyl 0.0024 uM",3.24 fold
same,Fold Induction of HMOX,"HPP-A 0.019 uM, Bardoxolone Methyl 0.0048 uM",2.88 fold
same,Fold Induction of HMOX,"HPP-A 0.019 uM, Bardoxolone Methyl 0.0097 uM",7.14 fold
same,Fold Induction of HMOX,"HPP-A 0.019 uM, Bardoxolone Methyl 0.039 uM",15.87 fold
same,Fold Induction of HMOX,"HPP-A 0.019 uM, Bardoxolone Methyl 0.078 uM",22.27 fold
same,Fold Induction of HMOX,"HPP-A 0.019 uM, Bardoxolone Methyl 0.156 uM",22.90 fold
same,Fold Induction of HMOX,"HPP-A 0.019 uM, Bardoxolone Methyl 0.312 uM",17.20 fold
same,Fold Induction of HMOX,"HPP-A 0.039 uM, Bardoxolone Methyl 0 uM",1.09 fold
same,Fold Induction of HMOX,"HPP-A 0.039 uM, Bardoxolone Methyl 0.0024 uM",2.32 fold
same,Fold Induction of HMOX,"HPP-A 0.039 uM, Bardoxolone Methyl 0.0048 uM",3.04 fold
same,Fold Induction of HMOX,"HPP-A 0.039 uM, Bardoxolone Methyl 0.0097 uM",5.31 fold
same,Fold Induction of HMOX,"HPP-A 0.039 uM, Bardoxolone Methyl 0.019 uM",8.57 fold
same,Fold Induction of HMOX,"HPP-A 0.039 uM, Bardoxolone Methyl 0.078 uM",18.69 fold
same,Fold Induction of HMOX,"HPP-A 0.039 uM, Bardoxolone Methyl 0.156 uM",17.24 fold
same,Fold Induction of HMOX,"HPP-A 0.039 uM, Bardoxolone Methyl 0.312 uM",17.44 fold
same,Fold Induction of HMOX,"HPP-A 0.078 uM, Bardoxolone Methyl 0 uM",1.92 fold
same,Fold Induction of HMOX,"HPP-A 0.078 uM, Bardoxolone Methyl 0.0024 uM",4.25 fold
same,Fold Induction of HMOX,"HPP-A 0.078 uM, Bardoxolone Methyl 0.0048 uM",4.72 fold
same,Fold Induction of HMOX,"HPP-A 0.078 uM, Bardoxolone Methyl 0.0097 uM",8.43 fold
same,Fold Induction of HMOX,"HPP-A 0.078 uM, Bardoxolone Methyl 0.019 uM",13.21 fold
same,Fold Induction of HMOX,"HPP-A 0.078 uM, Bardoxolone Methyl 0.039 uM",17.81 fold
same,Fold Induction of HMOX,"HPP-A 0.078 uM, Bardoxolone Methyl 0.156 uM",17.88 fold
same,Fold Induction of HMOX,"HPP-A 0.078 uM, Bardoxolone Methyl 0.312 uM",15.33 fold
same,Fold Induction of HMOX,"HPP-A 0.156 uM, Bardoxolone Methyl 0 uM",3.46 fold
same,Fold Induction of HMOX,"HPP-A 0.156 uM, Bardoxolone Methyl 0.0024 uM",7.32 fold
same,Fold Induction of HMOX,"HPP-A 0.156 uM, Bardoxolone Methyl 0.0048 uM",8.04 fold
same,Fold Induction of HMOX,"HPP-A 0.156 uM, Bardoxolone Methyl 0.0097 uM",12.05 fold
same,Fold Induction of HMOX,"HPP-A 0.156 uM, Bardoxolone Methyl 0.019 uM",15.95 fold
same,Fold Induction of HMOX,"HPP-A 0.156 uM, Bardoxolone Methyl 0.039 uM",17.59 fold
same,Fold Induction of HMOX,"HPP-A 0.156 uM, Bardoxolone Methyl 0.078 uM",18.44 fold
same,Fold Induction of HMOX,"HPP-A 0.156 uM, Bardoxolone Methyl 0.312 uM",15.98 fold
same,Fold Induction of HMOX,"HPP-A 0.312 uM, Bardoxolone Methyl 0 uM",9.82 fold
same,Fold Induction of HMOX,"HPP-A 0.312 uM, Bardoxolone Methyl 0.0024 uM",11.67 fold
same,Fold Induction of HMOX,"HPP-A 0.312 uM, Bardoxolone Methyl 0.0048 uM",13.59 fold
same,Fold Induction of HMOX,"HPP-A 0.312 uM, Bardoxolone Methyl 0.0097 uM",16.45 fold
same,Fold Induction of HMOX,"HPP-A 0.312 uM, Bardoxolone Methyl 0.019 uM",17.74 fold
same,Fold Induction of HMOX,"HPP-A 0.312 uM, Bardoxolone Methyl 0.039 uM",19.61 fold
same,Fold Induction of HMOX,"HPP-A 0.312 uM, Bardoxolone Methyl 0.078 uM",21.13 fold
same,Fold Induction of HMOX,"HPP-A 0.312 uM, Bardoxolone Methyl 0.156 uM",19.21 fold
same,Fold Induction of HMOX,"HPP-A 0.625 uM, Bardoxolone Methyl 0 uM",15.00 fold
same,Fold Induction of HMOX,"HPP-A 0.625 uM, Bardoxolone Methyl 0.0024 uM",15.70 fold
same,Fold Induction of HMOX,"HPP-A 0.625 uM, Bardoxolone Methyl 0.0048 uM",17.10 fold
same,Fold Induction of HMOX,"HPP-A 0.625 uM, Bardoxolone Methyl 0.0097 uM",17.18 fold
same,Fold Induction of HMOX,"HPP-A 0.625 uM, Bardoxolone Methyl 0.019 uM",16.84 fold
same,Fold Induction of HMOX,"HPP-A 0.625 uM, Bardoxolone Methyl 0.039 uM",17.24 fold
same,Fold Induction of HMOX,"HPP-A 0.625 uM, Bardoxolone Methyl 0.078 uM",18.60 fold
same,Fold Induction of HMOX,"HPP-A 0.625 uM, Bardoxolone Methyl 0.156 uM",18.68 fold
same,Fold Induction of HMOX,"HPP-A 0.625 uM, Bardoxolone Methyl 0.312 uM",12.69 fold
same,Fold Induction of HMOX,"HPP-A 1.25 uM, Bardoxolone Methyl 0 uM",16.17 fold
same,Fold Induction of HMOX,"HPP-A 1.25 uM, Bardoxolone Methyl 0.0024 uM",16.12 fold
same,Fold Induction of HMOX,"HPP-A 1.25 uM, Bardoxolone Methyl 0.0048 uM",17.26 fold
same,Fold Induction of HMOX,"HPP-A 1.25 uM, Bardoxolone Methyl 0.0097 uM",16.49 fold
same,Fold Induction of HMOX,"HPP-A 1.25 uM, Bardoxolone Methyl 0.019 uM",15.93 fold
same,Fold Induction of HMOX,"HPP-A 1.25 uM, Bardoxolone Methyl 0.039 uM",15.63 fold
same,Fold Induction of HMOX,"HPP-A 1.25 uM, Bardoxolone Methyl 0.078 uM",15.15 fold
same,Fold Induction of HMOX,"HPP-A 1.25 uM, Bardoxolone Methyl 0.156 uM",16.65 fold
same,Fold Induction of HMOX,"HPP-A 1.25 uM, Bardoxolone Methyl 0.312 uM",10.53 fold
same,Fold Induction of HMOX,"HPP-A 2.5 uM, Bardoxolone Methyl 0 uM",17.48 fold
same,Fold Induction of HMOX,"HPP-A 2.5 uM, Bardoxolone Methyl 0.0024 uM",18.81 fold
same,Fold Induction of HMOX,"HPP-A 2.5 uM, Bardoxolone Methyl 0.0048 uM",19.48 fold
same,Fold Induction of HMOX,"HPP-A 2.5 uM, Bardoxolone Methyl 0.0097 uM",19.42 fold
same,Fold Induction of HMOX,"HPP-A 2.5 uM, Bardoxolone Methyl 0.019 uM",17.04 fold
same,Fold Induction of HMOX,"HPP-A 2.5 uM, Bardoxolone Methyl 0.039 uM",14.71 fold
same,Fold Induction of HMOX,"HPP-A 2.5 uM, Bardoxolone Methyl 0.078 uM",14.33 fold
same,Fold Induction of HMOX,"HPP-A 2.5 uM, Bardoxolone Methyl 0.156 uM",12.49 fold
same,Fold Induction of HMOX,"HPP-A 5 uM, Bardoxolone Methyl 0 uM",17.72 fold
same,maximum HMOX1 fold induction,"HPP-A alone, concentrations greater than or equal to 2500 nM",18 fold
same,fold induction at 0.019 µM,[1],10
same,fold induction at 0.039 µM,[1],14.7
same,fold induction at 0.078 µM,[1],19.5
same,fold induction at 0.156 µM,[1],18.3
same,fold induction at 0.312 µM,[1],17.4
